According to article PMC8557901 (Microbiology Spectrum, 2021):

Experiments:
[1] = tested on: P. cynomolgi liver-stage parasites in simian primary hepatocytes; assay: In vitro liver-stage development, P. cynomolgi in simian primary hepatocytes; format: cell-based, Plasmodium cynomolgi
Text: Primary human hepatocytes were isolated from liver segments obtained from adult patients undergoing partial hepatectomy (Service de Chirurgie Digestive, Hépato-Bilio Pancréatique, Hôpital Pitié Salpêtrière, Paris, France). Primary simian hepatocytes were isolated from liver segments collected from healthy Macaca fascicularis monkeys from CEA, Fontenay aux Roses, France. All hepatocytes were obtained using collagenase perfusion as previously described ([40]). […] Primary murine hepatocytes were isolated from liver segments collected from BALB/c mice. Human and murine hepatocytes were used directly after their isolation. Cells were seeded in 96-well plates (Falcon; Becton Dickinson Labware Europe, France) coated with collagen I (BD Bioscience, USA) at a density of 80,000 cells per well. […] For human hepatocytes, the complete medium was supplemented with 2% dimethyl sulfoxide (DMSO; Sigma-Aldrich, USA) before infection to preserve their differentiation.
On the day of infection, 3 · 10^4 sporozoites of P. falciparum, P. yoelii, and P. cynomolgi were added to their respective host cell cultures (human, murine, and simian). The infected culture plates were centrifuged for 10 min at 900 × g, allowing fast parasite sedimentation, and further incubated with serial dilutions of M1. Culture medium containing the appropriate drug concentration was refreshed daily, and cells were fixed at 48 h postinfection (p.i.) for infections with P. yoelii, 6 days p.i. for P. falciparum, or 8 days p.i. for P. cynomolgi. For the in vitro sporozoite invasion experiments, P. falciparum sporozoites were preincubated with 1, 10, and 100 μM M1 for 1 h at room temperature before hepatocyte infections. Three hours later, after sporozoite penetration into hepatocytes, cultures were washed and then further incubated with or without the presence of the drug during 6 days. DMSO was used as a negative control.
The number, size, and shape of the parasites were determined using a CellInsight high-content screening platform equipped with Studio HCS software (ThermoFisher Scientific). […] Host cell and parasite nuclei were labeled with DAPI (4′,6-diamidino-2-phenylindole). […] The custom script used for counting and measuring parasites first required identification of the objects based on a fluorescence intensity threshold. The object identity was then further validated based on size and morphological (shape) criteria. The presence of DAPI-associated fluorescence in the selected objects allowed their final selection and the rejection of false positives. […] The parasitic size reduction was calculated on the average object area using the total surface area of each selected object (μm^2).

[2] = tested on: P. falciparum strain K1 in RBC; assay: In vitro chemosensitivity assay, blood stage P. falciparum K1 (SYBR green I); format: cell-based; settings: Plasmodium falciparum, K1; erythrocytic stage, 72 h; read-out: EC50 (μM) for P. falciparum strain K1 in RBC
Description: Maintenance in continuous culture was done as described previously by Trager and Jensen ([46]). Cultures were maintained in fresh A+ human erythrocytes (EFS [French Blood Bank]) at 2.5% hematocrit in complete medium (RPMI 1640 with 25 mM HEPES, 25 mM NaHCO3, 10% A+ human serum) at 37°C under a reduced-O2 atmosphere (gas mixture of 10% O2, 5% CO2, and 85% N2). Parasitemia was maintained daily between 1% and 3%. The P. falciparum drug susceptibility test was carried out by comparing quantities of DNA in treated and control cultures of parasites in human erythrocytes according to a SYBR green I fluorescence-based method ([50]) using a 96-well fluorescence plate reader. Compounds, previously dissolved in DMSO (final concentration, less than 0.5% vol/vol), were incubated in a total assay volume of 200 μl of synchronized culture suspension (2% hematocrit and 0.4% parasitemia) for 72 h in a humidified atmosphere (85% N2, 10% O2, and 5% CO2) at 37°C in 96-well flat-bottom plates. Duplicate assays were performed for each sample. After incubation, plates were frozen at −20°C for 24 h. Then, the frozen plates were thawed for 1 h at 37°C. Fifteen microliters of each sample was transferred to 96-well flat-bottom black plates (Greiner Bio-one) already containing 15 μl of the SYBR green I lysis buffer (2× SYBR green I, 20 mM Tris base, pH 7.5, 20 mM EDTA, 0.008% [wt/vol] saponin, 0.08% [wt/vol] Triton X-100). […] Plates were incubated for 15 min at 37°C and then read on a Tecan Infinite F-200 spectrophotometer with excitation and emission wavelengths at 485 and 535 nm, respectively. […] EC50K1 values represent the mean values calculated from three independent experiments.

[3] = tested on: P. falciparum strain NF54 gametocytes; assay: In vitro gametocyte induction and development assays; format: cell-based, Plasmodium falciparum
Description: To produce gametocytes, P. falciparum strain NF54 was cultured in vitro as described by Trager and Jensen ([46]) with minor modifications. Briefly, parasites were maintained in human type O-positive red blood cells (RBC) at 5% hematocrit (HCT) in RPMI 1640 medium supplemented with 10% heat-inactivated human serum, 10 mM hypoxanthine, 20 μg/ml gentamicin, The cultures were maintained at 37°C in a standard gas mixture of 5% O2, 5% CO2, 90% N2. Synchronous production of gametocytes was achieved as previously described ([47]). Briefly, asexual parasite cultures were synchronized by purifying schizonts with MACS cell separation columns (Miltenyi Biotec) and using them to reinvade erythrocytes. When parasitemia reached 10 to 15% rings, culture medium was supplemented with 50 mM N-acetylglucosamine (NAG; Sigma-Aldrich) for 5 days in order to clear residual asexual parasites and obtain a virtually pure gametocyte culture.
To assess the effect of gamhepathiopine on the induction of gametocytes, M1 (10 μM) was added at the same moment with NAG. For gametocyte development, gamhepathiopine was added 2 days after the addition of NAG. Medium replacement was performed every day. All cultures were prepared in parallel with controls corresponding to cultures that were treated with 0.1% DMSO. The percentages of each stage of gametocytes in cultures were assessed by microscopy of Giemsa-stained thin blood smears.
Figure S2. Protocol of in vitro gametocytocidal activity assays (NAG = N-acetylglucosamine). Gametocytes stages: I, II, III, IV and V. In blue: M1 effect on gametocyte induction: M1 (10 µM) added at D0 on asexual stage before induction with NAG (control= NAG+ DMSO). In green: M1 effect on gametocyte development: M1 (10 µM) added at D3 after induction (Control= DMSO). In red: M1 effect on exflagellation of mature male gametocytes on D10 (Control DMSO)

## Cc1ccc(-c2cc3nc(NC(C)(C)C)[nH]c(=O)c3s2)cc1 [Metabolite M1, 2-(tert-Butylamino)-6-(p-tolyl)thieno[3,2-d]pyrimidin-4(3H)-one]
[1]; P. cynomolgi in simian hepatocytes
  concentration from which liver-stage development was fully inhibited: 14 µM
[1]; Plasmodium cynomolgi, Hepatocyte, P. cynomolgi in simian primary hepatocytes (SH), mean ± SEM of triplicate experiments, read-out: EC50 against liver-stage parasites
  EC50: 1500 ± 300 nM
[1]; all tested concentrations (0.1 to 50 μM)
  activity on P. cynomolgi hypnozoites: not active
[1]; hepatocyte CC50/EC50, P. cynomolgi (SH)
  SI (selectivity index): >40
[1]; parasite (schizont) size, 10 μM, P. cynomolgi (SH)
  Size reduction at 10 μM (%): 80%
[2]
  EC50: 0.045 µM
[3]; 10 μM added after induction, day 6 postinduction, control 1.29
  stage III gametocytes mean value: 0.48
[3]; 10 μM added after induction, day 10 postinduction, control 0.70
  stage V gametocytes mean value: 0.26
[3]; 10 μM added at D0 with NAG, renewed every day
  reduction of the conversion rate of asexual parasites into gametocytes: 87.8%
